ChEMBL document CHEMBL1201862, “PubChem BioAssay data set” (2004)
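Dose response: 5 concentrations. Exposure: 48 h. Format: 96-well plates. Endpoint: linear interpolation; highest concentration if not reached. The concentration for 50% growth inhibition is given as GI50.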 Active and inactive are the calls of the source. No stated cut-off is given here; in the data, active = GI50 up to about 1.1 µM and inactive = higher.

Legend:
Test in all cases: DTP human tumour cell line panel, 48 h
[1] = test system: UACC-62
[2] = test system: NCI-H522
[3] = test system: SNB-75
[4] = test system: LOX IMVI
[5] = test system: SK-MEL-28
[6] = test system: UO-31
[7] = test system: A549
[8] = test system: 786-0
[9] = test system: UACC-257
[10] = test system: SW-620
[11] = test system: MOLT-4
[12] = test system: OVCAR-5
[13] = test system: SF-295
[14] = test system: M14
[15] = test system: SF-539
[16] = test system: HCC 2998
[17] = test system: KM12
[18] = test system: MCF7

Measured: GI50

CC(C)Cc1ccc(C(C)/C=C2\CCC(CN3CCCC3)C2=O)cc1 (stereo not drawn)
inactive: [1] 15.7 µM | [2] 1.31 µM | [3] 14.1 µM | [4] 2.88 µM | [5] 14.6 µM | [6] 15.9 µM | [7] 18.3 µM | [8] 1.85 µM | [9] 16.7 µM | [10] 7.18 µM | [11] 2.67 µM | [12] 21.8 µM | [13] 16.9 µM | [14] 13.8 µM | [15] 5.81 µM | [16] 7.08 µM | [17] 2.77 µM

COc1ccc(C2Oc3cc(OC)c(OC)cc3C2CCl)cc1OC (stereo not drawn)
inactive: [1] 25.6 µM | [2] > 100 µM | [3] 44.8 µM | [4] > 100 µM | [5] > 100 µM | [6] > 100 µM | [7] > 100 µM | [8] 56.8 µM | [9] > 100 µM | [10] > 100 µM | [11] > 100 µM | [12] > 100 µM | [14] > 100 µM | [15] > 100 µM | [16] > 100 µM | [17] > 100 µM

Cc1cc(C)nc(NS(=O)(=O)c2ccc(NC(=O)c3ccc(Cl)c4c(Nc5ccc(S(=O)(=O)N=C(N)N)cc5)c5ccccc5nc34)cc2)n1
inactive: [1] 36.3 µM | [2] 16.1 µM | [3] > 100 µM | [4] 17.8 µM | [5] 58.9 µM | [6] > 100 µM | [7] > 100 µM | [8] 32.7 µM | [9] 51.8 µM | [10] 17.4 µM | [11] 19.5 µM | [12] > 100 µM | [13] > 100 µM | [14] > 100 µM | [15] 34 µM | [16] 29.1 µM | [17] 37.9 µM

CC(C)=CC1C(C(=O)O)C1(C)C (stereo not drawn) [CHRYSANTHEMIC ACID]
inactive: [1] > 750 µM | [2] > 750 µM | [3] > 750 µM | [4] > 750 µM | [5] > 750 µM | [6] > 750 µM | [18] > 750 µM | [7] > 750 µM | [9] > 750 µM | [10] > 750 µM | [11] > 750 µM | [12] > 750 µM | [13] > 750 µM | [15] > 750 µM | [16] > 750 µM | [17] > 750 µM

O=C(CC1(O)C(=O)Nc2c(Cl)cc(Cl)cc21)c1ccc2ccccc2c1 (stereo not drawn)
inactive: [1] 3.55 µM | [2] 2.92 µM | [3] 3.99 µM | [4] 10.5 µM | [5] 10.7 µM | [6] 11.5 µM | [7] 5.2 µM | [8] 10.2 µM | [9] 12.6 µM | [10] 3.66 µM | [11] 6.24 µM | [12] 16.6 µM | [13] 7.93 µM | [14] 4.79 µM | [15] 8.17 µM | [16] > 10 µM | [17] 5.92 µM

CC(=O)N/C(=C\c1cccc([N+](=O)[O-])c1)c1nc2ccc3c(c2[nH]1)C(=O)c1ccccc1C3=O
inactive: [1] > 49.8 µM | [2] 9.89 µM | [3] 21.3 µM | [4] 13.3 µM | [5] > 100 µM | [6] 3.62 µM | [7] 26.6 µM | [8] 27.2 µM | [10] 31.9 µM | [11] 8.04 µM | [12] > 93.3 µM | [13] > 100 µM | [14] 70.3 µM | [15] 42 µM | [16] > 100 µM | [17] 7.57 µM

COc1ccc(O)c(C#N)c1C#N.COc1ccc(OC)c(C#N)c1C#N
inactive: [1] > 100 µM | [3] 45.8 µM | [4] > 100 µM | [5] > 100 µM | [6] > 100 µM | [18] > 100 µM | [7] > 100 µM | [9] > 100 µM | [10] > 100 µM | [11] > 100 µM | [12] > 100 µM | [13] > 100 µM | [15] > 100 µM | [16] > 100 µM | [17] > 100 µM

CN(CC#N)C1CCCC[C@H]1O (stereo partly drawn)
inactive: [1] > 100 µM | [2] > 100 µM | [3] > 100 µM | [4] > 100 µM | [5] > 100 µM | [6] > 100 µM | [7] > 100 µM | [8] > 100 µM | [9] > 100 µM | [10] > 90.4 µM | [11] > 100 µM | [12] > 100 µM | [13] > 100 µM | [14] > 100 µM | [15] > 100 µM | [16] > 100 µM | [17] > 100 µM

CC1=C(CO)C(=O)OC(C(C)C2CCC3C4CC5OC56C(O)C(N5CC5)=CC(=O)C6(C)C4CCC23C)C1 (stereo not drawn)
inactive: [1] 10.5 µM | [2] 1.67 µM | [3] 4.01 µM | [4] 14 µM | [5] 16 µM | [6] 12.9 µM | [7] 10.4 µM | [8] 5.05 µM | [9] 11.9 µM | [10] 2.56 µM | [11] 1.95 µM | [12] 17.4 µM | [13] 16.5 µM | [14] 12.1 µM | [15] 3.66 µM | [16] 2.93 µM | [17] 2.02 µM
